Patent US20050069907A1, “Methods for using double-mutant RNA polymerases with reduced discrimination between non-canonical and canonical nucleoside triphosphates” (priority 2002, published 2005)

Tests used:
RNA as a template = conditions: cited from earlier work
Bgl II-cut pPK5 = test: Run-off transcription with 2′-OMe- or 2′-azido-NTPs on Bgl II-cut pPK5; format: biochemical
Method: (§1) RNAPs were prepared as described (Brieba, L G, and Sousa, R. Biochemistry, 39: 919-923, 2000). Transcription reactions were carried out for 30 min. at room temperature in 40 mM Tris-Cl, pH 8.0, 6 mM MgCl2, 10 mM NaCl, 2 mM spermidine, with templates at 10^−7 M and RNAPs at 2×10^−7 M. All NTPs were used at 0.5 mM, and transcripts were labeled by inclusion of 1% v/v 800 Ci/mM […] in the reaction. Modified NTPs were from Trilink Biotechnologies. Reactions were stopped by addition of an equal volume of 90% formamide, 50 mM EDTA, 0.01% xylene cyanol, resolved by electrophoresis in 20% acrylamide, 1% bis-acrylamide, 1×TBE gels, and visualized on a Molecular Dynamics Phosphorimager.
The ability of the wild-type, Y639F and Y639F/H784A mutants to utilize 2′-OMe-UTP and 2′-OMe-CTP, and 2′-azido-UTP and 2′-azido-CTP in RNA synthesis was tested. On a Bgl II-cut pPK5 (Mentesanas, P. E., et al., “Characterization of Bacteriophage T7 RNA Polymerase Elongation Complexes,” J. Mol. Biol. 302:1049-1062, 2000) template in which CTP and UTP are first incorporated at +14 and +15, respectively, the wild-type enzyme can synthesize 34 nucleotide (nt) run-off transcripts in reactions in which UTP is replaced with 2′-OMe-UTP (FIG. 2a, lane 2) or in reactions in which CTP is replaced with 2′-OMe-CTP (FIG. 2a, lane 3). Relative to the reaction with 4 NTPs (FIG. 2a, lane 1), yields of run-off transcripts are reduced 6-fold and 21-fold in the 2′-OMe-UTP and 2′-OMe-CTP reactions, respectively. When both UTP and CTP are replaced with the corresponding 2′-OMe-NTPs, run-off transcription with the wild-type enzyme is undetectable (FIG. 2a, lane 4). Terminated transcripts are seen in these reactions at positions where 2′-OMe-UMP or 2′-OMe-CMP are incorporated (FIG. 2a, lanes 2-4). The Y639F mutation enhances utilization of the 2′-OMe-NTPs: relative to reactions with 4 NTPs (FIG. 2a, lane 5) runoff transcription with Y639F is reduced, respectively: 2-fold, 8-fold, and 55-fold in reactions with 2′-OMe-UTP, 2′-OMe-CTP, or both (FIG. 2a, lanes 6-8). With the Y639F/H784A double mutant the reduction in run-off transcript synthesis is <15% in reactions with 2′-OMe-UTP (FIG. 2a, lane 10), and only 3-fold and 6-fold in reactions with, respectively, 2′-OMe-CTP or both 2′-OMe-UTP and 2′-OMe-CTP (FIG. 2a, lanes 11, 12).
Identical experiments were carried out with 2′-azido-UTP or 2′-azido-CTP replacing UTP or CTP, respectively (FIG. 2b). With the wild-type enzyme, run-off transcription was reduced 15- and 50-fold in reactions with 2′-azido-UTP or 2′-azido-CTP, respectively (FIG. 2b; lanes 2, 3), and was undetectable in reactions with both 2′-azido-UTP and 2′-azido-CTP (FIG. 2b; lane 4). With Y639F, use of 2′-azido-UTP or 2′-azido-CTP reduced run-off transcription by 70% (FIG. 2b; lanes 6, 7) compared to reactions with 4 NTPs (FIG. 2b; lane 5), while use of both 2′-azido-UTP and 2′-azido-CTP reduced runoff transcription by 11-fold (FIG. 2b, lane 8). With Y639F/H784A use of a single azido-modified NTP reduced run-off transcription by only 40% (FIG. 2b; lanes 10, 11), while use of two 2′-azido-NTPs reduced it by 3-fold (FIG. 2b; lane 12).

HindIII-cut pT75 = test: Run-off transcription with 2′-OMe- or 2′-azido-NTPs on HindIII-cut pT75; format: biochemical
Method: as §1
With the pPK5 template, UMP and CMP are not incorporated into the first 9 nt of RNA. Incorporation of non-canonical NMPs during synthesis of the first 9 nt of RNA is expected to cause greater reductions in run-off transcript synthesis because the RNA is readily released from the transcription complex during this initial phase of transcription. Therefore, if incorporation of a non-canonical NMP is slow, the RNA will usually dissociate before the NMP is incorporated. […] To see whether NMPs with bulky 2′-substituents could be incorporated during the initial phase of transcription a Hind-III linearized pT75 (Tabor, S. and Richardson, C. C., “A bacteriophage T7 RNA polymerase/promoter system for controlled exclusive expression of specific genes,” Proc. Natl. Acad. Sci. USA 82:1074-1078, 1985) was used. On this template, UMP is first incorporated at +14 while CMP is incorporated at +6 and +7. In reactions with 2′-OMe-UTP run-off transcript synthesis is reduced 11-fold, 5-fold, and <2-fold with the wild-type, and the Y639F, and Y639F/H784A mutants, respectively (FIG. 2c; lanes 2, 6, 10). However, in reactions with 2′-OMe-CTP run-off transcription is undetectable with the wild-type or Y639F enzymes (FIG. 2c; lanes 3, 4, 7, 8), and is reduced ˜700-fold with Y639F/H784A (FIG. 2c; lanes 11, 12).
Run-off transcript yields in reactions with HindIII-cut pT75 and 2′-azido-UTP are reduced 18-, 8.5-, and <2-fold with wild-type and Y639F and Y639F/H784 mutants, respectively (FIG. 2d; lanes 2, 6, 10), relative to reactions with 4 NTPs (FIG. 2d; lanes 1, 5, 9). In reactions with 2′-azido-CTP, or both 2′-azido-CTP and 2′-azido-UTP, run-off transcription is undetectable with the wild-type enzyme (FIG. 2d; lanes 3, 4), is reduced 65-fold with Y639F (FIG. 2d; lanes 7, 8), but is reduced only 7-fold with Y639F/H784A (FIG. 2d; lanes 11, 12).

T7 Control Template = test: Incorporation of Cy5-UTP or Cy5-dCTP into transcripts (A650/A260); format: biochemical; conditions: FluoroLink Cy5-UTP or Cy5-dCTP in addition to UTP or CTP
Method: In separate experiments to evaluate the ability of the Y639F/H784A double mutant versus the Y639F single mutant of T7 RNAP to incorporate nucleoside triphosphates with substituents at other positions than the 2′-position of the sugar, in vitro transcription reactions are carried out with each mutant enzyme using a T7 Control Template from an AmpliScribe™ T7 High Yield Transcription Kit (EPICENTRE) and either FluoroLink™ Cy5-UTP or FluoroLink™ Cy5-dCTP (both from Amersham Biosciences) in the reaction mixture in addition to the corresponding canonical nucleotide, UTP or CTP. Following transcription, the product is precipitated with ammonium acetate and the relative amount of Cy5 dye in the transcripts are determined based on the A650/A260 absorption ratios.

[1] = even in Mn^2+ buffer; cited from earlier work

E. coli DNA-directed DNA polymerase I: E. coli DNA polymerase I
Increase in dNTP Km (RNA as a template): ~100 fold

Y639F/H784A: Y639F/H784A double mutant of T7 RNAP
Reduction of run-off transcript yield relative to 4 NTPs (Bgl II-cut pPK5; 2′-OMe-CTP replacing CTP): 3 fold
Reduction in run-off transcript synthesis (Bgl II-cut pPK5; 2′-OMe-UTP replacing UTP): < 15%
Reduction of run-off transcript yield relative to 4 NTPs (Bgl II-cut pPK5; both 2′-OMe-UTP and 2′-OMe-CTP): 6 fold
Reduction of run-off transcription (Bgl II-cut pPK5; both 2′-azido-UTP and 2′-azido-CTP): 3 fold
Reduction of run-off transcription (Bgl II-cut pPK5; single azido-modified NTP (2′-azido-UTP or 2′-azido-CTP)): 40%
Reduction of run-off transcription (HindIII-cut pT75; 2′-OMe-CTP): ~700 fold
Reduction of run-off transcript synthesis (HindIII-cut pT75; 2′-OMe-UTP): < 2 fold
Reduction of run-off transcription (HindIII-cut pT75; 2′-azido-CTP, or both 2′-azido-CTP and 2′-azido-UTP): 7 fold
Reduction of run-off transcript yields relative to 4 NTPs (HindIII-cut pT75; 2′-azido-UTP): < 2 fold
A650/A260 absorption ratio of transcription products compared to Y639F single mutant (T7 Control Template): significantly higher

B1: T7 DNAP: T7 DNA polymerase (protein, UniProt P00581 1-704, looked up)
DNA-directed DNA polymerase: MIVSDIEANALLESVTKFHCGVIYDYSTAEYVSYRPSDFGAYLDALEAEVARGGLIVFHNGHKYDVPALTKLAKLQLNREFHLPRENCIDTLVLSRLIHSNLKDTDMGLLRSGKLPGKRFGSHALEAWGYRLGEMKGEYKDDFKRMLEEQGEEYVDGMEWWNFNEEMMDYNVQDVVVTKALLEKLLSDKHYFPPEIDFTDVGYTTFWSESLEAVDIEHRAAWLLAKQERNGFPFDTKAIEELYVELAARRSELLRKLTETFGSWYQPKGGTEMFCHPRTGKPLPKYPRIKTPKVGGIFKKPKNKAQREGREPCELDTREYVAGAPYTPVEHVVFNPSSRDHIQKKLQEAGWVPTKYTDKGAPVVDDEVLEGVRVDDPEKQAAIDLIKEYLMIQKRIGQSAEGDKAWLRYVAEDGKIHGSVNPNGAVTGRATHAFPNLAQIPGVRSPYGEQCRAAFGAEHHLDGITGKPWVQAGIDASGLELRCLAHFMARFDNGEYAHEILNGDIHTKNQIAAELPTRDNAKTFIYGFLYGAGDEKIGQIVGAGKERGKELKKKFLENTPAIAALRESIQQTLVESSQWVAGEQQVKWKRRWIKGLDGRKVHVRSPHAALNTLLQSAGALICKLWIIKTEEMLVEKGLKHGWDGDFAYMAWVHDEIQVGCRTEEIAQVVIETAQEAMRWVGDHWNFRCLLDTEGKMGPNWAICH
Selectivity for dNTPs over rNTPs [1]: at least 2,000 fold
